Experimental data published in PubChem BioAssay AID1963839 (Molecular Pharmacology Branch, DTP, NCI, 2024).

Tested on: 817829-284-R-J1-PDC complex spheroid viability
Assay: Anticancer human tumor 817829-284-R-J1-PDC patient-derived colon adenocarcinoma cell line growth inhibition [POLQ]
Conditions: for IC50: curve of first compound; for viability, T/C: stronger effect = lower value
Experimental: Multicellular complex tumor spheroid response to Polymerase (POL) inhibitors (novobiocin, ART-558, RP6685) in combination with a variety of drugs and investigational agents in selected tumor cell lines
The POL inhibitors (novobiocin, ART-558, and RP6685) were evaluated both individually and in combination with standard of care and investigational anticancer small molecules within a complex spheroid model of solid tumors. . Complex spheroids include a stromal component modeled by human endothelial cells (HUVEC) and fibroblasts modeled by human mesenchymal stem cells (MSCs). The concentration ranges selected for each drug and investigational agent were based upon clinically achievable concentrations if the clinical Cmax of the agent was known.
Compounds. The drugs and investigational agents: novobiocin (NSC847541), ART-558 (NSC835418), RP-6685 (NSC848927), peposertib (NSC802822), ceralasertib (NSC780249), elimusertib (NSC800525), camonsertib (NSC841442), AZD-1390 (NSC803789), olaparib (NSC753686), talazoparib (NSC767125), rucaparib (NSC756644), sotorasib (NSC818433), MRTX-1133 (NSC836407), SN-38 (NSC673596), topotecan (NSC609699), epotoside (NSC141540), doxorubicin (NSC123127), gemcitabine (NSC613327), 5-fluorouracil (NSC19893), paclitaxel (NSC125973), vemurafenib (NSC761431), MSA-2 (NSC828583), SN-011 (NSC837082), adavosertib (NSC754352), prexasertib (NSC758257), carboplatin (NSC241240) and oxaliplatin (NSC266046), were obtained from the National Cancer Institute (NCI) Developmental Therapeutics Program Chemical Repository (21). The FDA-approved anticancer drug set is available from the Developmental Therapeutics Program at https://dtp.cancer.gov/organization/dscb/obtaining/. […] The stock solutions were prepared in dimethyl sulfoxide (DMSO, Sigma-Aldrich, St. Louis, MO, cat. D2650), except for the platinum compounds which were prepared in saline (Quality Biological, Gaithersburg, MD, cat. 114-055-101), at 800-fold the tested concentration and stored at -70 degrees C prior to their use. All drugs and investigational agents were tested over a range starting from a high concentration at or near the clinical Cmax and decreasing in half-log increments. If the clinical Cmax for an agent had not been determined, the highest concentration tested was 10 microM, except for SN-38, which was tested at a high concentration of 1 microM.
Cell Culture. All cells were maintained in an incubator at 37 degrees C and 5% CO2 with 95% humidity. The PDC lines were cultured according to standard operating procedures established by the NCI PDMR (https://pdmr.cancer.gov). Table 3 of the manuscript, lists the cell lines along with the number of the three cell types plated to form the mct-spheroids and media for tumor cell growth. After thawing, all PDC lines, except 997537-175-T-J1-PDC and 415267-285-R-J2-PDC, were cultured in Matrigel-coated flasks prepared with a working solution of 1X Ham's F-12 nutrient mix, without supplementation (Thermo Fisher Scientific, cat. 11765054), 100 U/mL penicillin-streptomycin (Thermo Fisher Scientific, cat. 15140122), and 2.5% Matrigel (Corning Inc., Corning, NY, cat. 354248) for the first three passages. The two PDC lines 997537-175-T-J1-PDC and 415267-285-R-J2-PDC were cultured on uncoated flasks. The 857933-349-R-J2-PDC line was cultured in 6C/Colon 1B media containing advanced DMEM/F-12 (Thermo Fisher Scientific, cat. 12634028), 10 mM HEPES (Thermo Fisher Scientific, cat. 15630080), 1X GlutaMAX supplement (Thermo Fisher Scientific, cat. 35050061), 0.1 mg/mL primocin (InvivoGen, San Diego, CA, cat. ant-pm-2), 10% defined fetal bovine serum, heat inactivated (HyClone Laboratories Inc., Logan, UT, cat. SH30070.03HI), 50% L-WRN conditioned media (ATCC, cat. CRL-3276), 1.25 mM N-Acetyl-L-cysteine (Sigma-Aldrich, cat. A9165), 10 mM nicotinamide (Sigma-Aldrich, cat. N0636), 1X B-27 supplement (Thermo Fisher Scientific, cat. 17504044), 1X N-2 supplement (Thermo Fisher Scientific, cat. […]
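Also: spheroids exposed to compounds for 7 days.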
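For viability, T/C in this document: 100% = DMSO vehicle-treated spheroids.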

`CC(=O)O[C@H]1C(=O)[C@@]2(C)[C@H]([C@H](OC(=O)c3ccccc3)[C@]3(O)C[C@H](OC(=O)[C@H](O)[C@@H](NC(=O)c4ccccc4)c4ccccc4)C(C)=C1C3(C)C)[C@]1(OC(C)=O)CO[C@@H]1C[C@@H]2O` + COC1C(OC(N)=O)C(O)C(Oc2ccc3c(O)c(NC(=O)c4ccc(O)c(CC=C(C)C)c4)c(=O)oc3c2C)OC1(C)C was tested, and the IC50 (second compound 0.0316 µM) was under 9.49 nM, the IC50 (second compound 0.1 µM) was under 9.49 nM and the IC50 (second compound 0.316 µM) was under 9.49 nM. It also gave an IC50 (second compound 1 µM) of under 9.49 nM, an IC50 (second compound 3.16 µM) of under 9.49 nM and an IC50 (second compound 10 µM) of under 9.49 nM. For the same compound, the viability, T/C (second compound 0.0316 µM, first compound 0.00949 µM) was 6.3%, the viability, T/C (second compound 0.0316 µM, first compound 0.03 µM) was 5.64% and the viability, T/C (second compound 0.0316 µM, first compound 0.0949 µM) was 4.85%. It also gave a viability, T/C (second compound 0.0316 µM, first compound 0.3 µM) of 4.95%, a viability, T/C (second compound 0.0316 µM, first compound 0.949 µM) of 4.91% and a viability, T/C (second compound 0.0316 µM, first compound 3 µM) of 5.21%. The viability, T/C (second compound 0.1 µM, first compound 0.00949 µM) was 5.46%, the viability, T/C (second compound 0.1 µM, first compound 0.03 µM) was 4.45% and the viability, T/C (second compound 0.1 µM, first compound 0.0949 µM) was 4.97%. It also gave a viability, T/C (second compound 0.1 µM, first compound 0.3 µM) of 5.08%, a viability, T/C (second compound 0.1 µM, first compound 0.949 µM) of 4.85% and a viability, T/C (second compound 0.1 µM, first compound 3 µM) of 5.2%. The viability, T/C (second compound 0.316 µM, first compound 0.00949 µM) was 5.79%, the viability, T/C (second compound 0.316 µM, first compound 0.03 µM) was 5.7% and the viability, T/C (second compound 0.316 µM, first compound 0.0949 µM) was 5.32%. For the same compound, the viability, T/C (second compound 0.316 µM, first compound 0.3 µM) was 4.7%, the viability, T/C (second compound 0.316 µM, first compound 0.949 µM) was 4.56% and the viability, T/C (second compound 0.316 µM, first compound 3 µM) was 4.8%. It also gave a viability, T/C (second compound 1 µM, first compound 0.00949 µM) of 5.74%, a viability, T/C (second compound 1 µM, first compound 0.03 µM) of 5.47% and a viability, T/C (second compound 1 µM, first compound 0.0949 µM) of 5.82%. It also gave a viability, T/C (second compound 1 µM, first compound 0.3 µM) of 4.18%, a viability, T/C (second compound 1 µM, first compound 0.949 µM) of 4.64% and a viability, T/C (second compound 1 µM, first compound 3 µM) of 5.33%. It also gave a viability, T/C (second compound 3.16 µM, first compound 0.00949 µM) of 5.62%, a viability, T/C (second compound 3.16 µM, first compound 0.03 µM) of 5.09% and a viability, T/C (second compound 3.16 µM, first compound 0.0949 µM) of 4.79%. For the same compound, the viability, T/C (second compound 3.16 µM, first compound 0.3 µM) was 4.48%, the viability, T/C (second compound 3.16 µM, first compound 0.949 µM) was 4.83% and the viability, T/C (second compound 3.16 µM, first compound 3 µM) was 4.67%. For the same compound, the viability, T/C (second compound 10 µM, first compound 0.00949 µM) was 5.28%, the viability, T/C (second compound 10 µM, first compound 0.03 µM) was 5.23% and the viability, T/C (second compound 10 µM, first compound 0.0949 µM) was 5.99%. For the same compound, the viability, T/C (second compound 10 µM, first compound 0.3 µM) was 5.05%, the viability, T/C (second compound 10 µM, first compound 0.949 µM) was 4.95% and the viability, T/C (second compound 10 µM, first compound 3 µM) was 5.41%.

`COc1cccc2c1C(=O)c1c(O)c3c(c(O)c1C2=O)CC(O)(C(=O)CO)CC3OC1CC(N)C(O)C(C)O1` (centres undefined) + COC1C(OC(N)=O)C(O)C(Oc2ccc3c(O)c(NC(=O)c4ccc(O)c(CC=C(C)C)c4)c(=O)oc3c2C)OC1(C)C showed an IC50 (second compound 0.0316 µM) of 110 nM, an IC50 (second compound 0.1 µM) of under 31.6 nM and an IC50 (second compound 0.316 µM) of under 31.6 nM. It also gave an IC50 (second compound 1 µM) of 109 nM, an IC50 (second compound 3.16 µM) of 143 nM and an IC50 (second compound 10 µM) of under 31.6 nM. It also gave a viability, T/C (second compound 0.0316 µM, first compound 0.0316 µM) of 17.6%, a viability, T/C (second compound 0.0316 µM, first compound 0.1 µM) of 90.5% and a viability, T/C (second compound 0.0316 µM, first compound 0.316 µM) of 5.53%. It also gave a viability, T/C (second compound 0.0316 µM, first compound 1 µM) of 1.37%, a viability, T/C (second compound 0.0316 µM, first compound 3.16 µM) of 0.16% and a viability, T/C (second compound 0.0316 µM, first compound 10 µM) of 0.52%. For the same compound, the viability, T/C (second compound 0.1 µM, first compound 0.0316 µM) was 16.5%, the viability, T/C (second compound 0.1 µM, first compound 0.1 µM) was 75.1% and the viability, T/C (second compound 0.1 µM, first compound 0.316 µM) was 6.74%. The viability, T/C (second compound 0.1 µM, first compound 1 µM) was 0.41%, the viability, T/C (second compound 0.1 µM, first compound 3.16 µM) was 0.25% and the viability, T/C (second compound 0.1 µM, first compound 10 µM) was 0.49%. For the same compound, the viability, T/C (second compound 0.316 µM, first compound 0.0316 µM) was 14.3%, the viability, T/C (second compound 0.316 µM, first compound 0.1 µM) was 82% and the viability, T/C (second compound 0.316 µM, first compound 0.316 µM) was 7.31%. The viability, T/C (second compound 0.316 µM, first compound 1 µM) was 0.98%, the viability, T/C (second compound 0.316 µM, first compound 3.16 µM) was 0.19% and the viability, T/C (second compound 0.316 µM, first compound 10 µM) was 0.45%. The viability, T/C (second compound 1 µM, first compound 0.0316 µM) was 22.7%, the viability, T/C (second compound 1 µM, first compound 0.1 µM) was 84.3% and the viability, T/C (second compound 1 µM, first compound 0.316 µM) was 6.03%. For the same compound, the viability, T/C (second compound 1 µM, first compound 1 µM) was 1.44%, the viability, T/C (second compound 1 µM, first compound 3.16 µM) was 0.19% and the viability, T/C (second compound 1 µM, first compound 10 µM) was 0.51%. It also gave a viability, T/C (second compound 3.16 µM, first compound 0.0316 µM) of 21.1%, a viability, T/C (second compound 3.16 µM, first compound 0.1 µM) of 119% and a viability, T/C (second compound 3.16 µM, first compound 0.316 µM) of 6.03%. For the same compound, the viability, T/C (second compound 3.16 µM, first compound 1 µM) was 0.63%, the viability, T/C (second compound 3.16 µM, first compound 3.16 µM) was 0.27% and the viability, T/C (second compound 3.16 µM, first compound 10 µM) was 0.51%. The viability, T/C (second compound 10 µM, first compound 0.0316 µM) was 15.7%, the viability, T/C (second compound 10 µM, first compound 0.1 µM) was 83.3% and the viability, T/C (second compound 10 µM, first compound 0.316 µM) was 5.98%. For the same compound, the viability, T/C (second compound 10 µM, first compound 1 µM) was 0.49%, the viability, T/C (second compound 10 µM, first compound 3.16 µM) was 0.31% and the viability, T/C (second compound 10 µM, first compound 10 µM) was 0.47%.
